Literature values, collected in US20040006103A1, “Use of chloroquine, hydroxychloroquine and 4 amino-quinolinic derivatives to obtain a drug for the anti retroviral therapy, active towards HIV sensitive strains and towards HIV strains which are resistant to both nucleosidic and non-nucleosidic reverse transcriptase inhibitors and to proteases …” (VALPHARMA S.A., priority 2002, published 2004).

Tests used:
HIV [1] = conditions: 800 mg/day, compared to placebo; Sperber et al. 1997; cited from earlier work
HIV-1 [2] = conditions: Sperber (1993), cited from earlier work
HIV [3] = conditions: cited from earlier work
HIV [4] = conditions: in vitro, cited from earlier work
HIV-1 [5] = conditions: 800 mg/day, 8 weeks, Sperber et al. (1995), cited from earlier work
[6] = plasmatic concentrations 7 to 15 microM, prolonged over 18-24 months; Lange (1994); cited from earlier work
HIV [7] = conditions: continuous cultures of cells from the lymphocyte system; Tsai (1990); cited from earlier work

Row | Structure (SMILES) | plasmatic HIV-RNA (HIV [1]) | production of infecting viral particles (HIV-1 [2]; CEM cells used as target) | inhibition of HIV-1 replication (HIV-1 [2]; PBMC, U-937, CEM) [%] | toxic effect in cell cultures (HIV-1 [2]; concentration suitable for inhibit viral replication) | negative events (HIV [3]; 16 weeks, hydroxychloroquine 800 mg/day, AZT 500 mg/day) | patients with an increase of plasmatic viremia (HIV [3]; at the 8th and at the 16th week) | effect on inhibition of the HIV replication when added to ddI plus HU (HIV [4]; Boelaert et al. (1999)) | effect when added to the association AZT plus HU (HIV [4]; Boelaert et al. (2001)) | quantity of HIV-RNA (HIV-1 [5]; asymptomatic HIV-1 positive patients) | negative events (HIV-1 [5]) | retinopathy [6] | inhibition of the HIV replicative cycle (HIV [7])
1 | CCN(CCO)CCCC(C)Nc1ccnc2cc(Cl)ccc12 (stereo not drawn) [HCQ, hydroxychloroquine] | significant reduction | almost completely inhibits | > 75 | no toxic effect was found | no negative events were observed | nobody | extra effect | additional effect | significantly decreased | No negative event was observed | rarely induced retinopathy | –
2 | CCN(CC)CCCC(C)Nc1ccnc2cc(Cl)ccc12 (stereo not drawn) [CQ, chloroquine] | – | – | – | – | – | – | – | – | – | – | – | inhibits the HIV replicative cycle
